The source of these data is US20220235008A1, “PLEUROMULIN 7-CHLORO-1-CYCLOPROPYL-6-FLUORO-1,4-DIHYDRO-4-OXOQUINOLINE-3-CARBOXYLIC ACID ESTER WITH ANTIBACTERIAL ACTIVITY AND A METHOD OF PREPARING THE SAME” (SHAANXI UNIVERSITY OF SCIENCE AND TECHNOLOGY, priority 2021, published 2022).

Common to all, as to type: cell-based
In experiment [1] the test system is multi-resistant Staphylococcus aureus 206 (MRSA-206). Briefly: paper diffusion method drug sensitivity test, MRSA-206. As to conditions: 30 μg/tablet; for Zone of inhibition, MRSA-206: paper 6.35 mm diameter, LB plate, 37° C., 24 h, >17 mm sensitive, 15 mm-16 mm intermediary, <14 mm drug resistance; for inhibitory effect (in words) on multi-drug resistant Staphylococcus aureus 206: paper diffusion, summary of FIGS. 1-3 and Table 1. Here is the method:
(§1) The antimicrobial efficacy was determined by a paper diffusion method drug sensitivity test.
(§2) Experimental strains: multi-resistant Staphylococcus aureus 206 (MRSA-206), multi-resistant Staphylococcus aureus 575 (MRSA-575), multi-resistant Staphylococcus aureus 596 (MRSA-596). The experimental strain was identified by Huashan Hospital Affiliated to Fudan University (Institute of Antibiotic of Fudan University).
(§3) Drug sensitive paper: The drug sensitive paper was a special drug sensitive paper with a diameter of 6.35 mm and a water absorption of 0.02 mL. The control drug was vancomycin (30 μg/tablet); the test drugs were pleuromulin (30 μg/tablet), 7-chloro-1-cyclopropyl-6-fluoro-1,4-dihydro-4-oxoquinoline-3-carboxylic acid (30 μg/tablet) and pleuromulin 7-chloro-1-cyclopropyl-6-fluoro-1,4-dihydro-4-oxoquinoline-3-carboxylic acid ester (30 μg/tablet).
(§4) Reagents: LB agar medium, LA broth medium, 0.5% DMSO solution.
(§5) The experimental strains were inoculated in non-selective medium and placed in air at 37° C. for 24 h. A single colony that grows well and inoculate it into broth medium was incubate at 35° C.±2° C. for 6 hours, and LA broth medium was used to calibrate the concentration of the bacterial solution to 0.5 Mie turbidimetric tube (1.5×10^8 CFU/mL). A bacterial suspension was obtained.
(§6) LB dry powder was weighed, sterilized at 103.4 Kpa, 121.3° C. high-pressure steam for 15 min, and then placed it in a 40° C.-50° C. water bath. A sterile empty plate (inner diameter 9 cm) was placed on the surface of the ultra-clean table water table, and […] to the plate. The thickness of each plate was 3 mm to 4 mm. After the plate was cooled at room temperature, it was stored in the refrigerator at 2° C.-8° C. A sterile cotton swab was used to dip the bacterial solution and to evenly coat the surface of the LB plate 3 times. After inoculation of the bacterial suspension, the LB plate was dried at room temperature for 3 min to 5 min. Sterile forceps were used to closely attach the antibacterial drug paper to the dish. The dish was put upside down and placed in a 37° C. incubator for 24 h. The results were observed by measuring the diameter. Taking 0.5% DMSO solution as a negative control, the antibacterial activity is expressed by the diameter of the inhibition zone. The inhibition zone >17 mm, sensitive; the inhibition zone of 15 mm-16 mm, intermediary; the inhibition zone <14 mm, drug resistance.

The test system of experiment [2] is multi-resistant Staphylococcus aureus 596 (MRSA-596). Briefly: paper diffusion method drug sensitivity test, MRSA-596. As to conditions: 30 μg/tablet; for Zone of inhibition, MRSA-596: paper 6.35 mm diameter, LB plate, 37° C., 24 h, >17 mm sensitive, 15 mm-16 mm intermediary, <14 mm drug resistance; for inhibitory effect (in words) on multi-drug resistant Staphylococcus aureus 596: paper diffusion, summary of FIGS. 1-3 and Table 1. Here is the method:
as §1, §2, §3, §4, §5, §6

The subject of experiment [3] is multi-resistant Staphylococcus aureus 575 (MRSA-575). As to the kind of experiment: paper diffusion method drug sensitivity test, MRSA-575. As to conditions: 30 μg/tablet; for Zone of inhibition, MRSA-575: paper 6.35 mm diameter, LB plate, 37° C., 24 h, >17 mm sensitive, 15 mm-16 mm intermediary, <14 mm drug resistance; for inhibitory effect (in words) on multi-drug resistant Staphylococcus aureus 575: paper diffusion, summary of FIGS. 1-3 and Table 1. Here is the method: as §1, §2, §3, §4, §5, §6

Regarding `O=C(O)c1cn(C2CC2)c2cc(Cl)c(F)cc2c1=O` [7-Chloro-1-cyclopropyl-6-fluoro-1,4-dihydro-4-oxoquinoline-3-carboxylic acid], in experiment [1], the “Zone of inhibition, MRSA-206” value was 0 mm and the “inhibitory effect (in words) on multi-drug resistant Staphylococcus aureus 206” value is given as “no inhibitory effect”. Moreover, in experiment [2], the “Zone of inhibition, MRSA-596” value is recorded as 0 mm and the “inhibitory effect (in words) on multi-drug resistant Staphylococcus aureus 596” value is “no inhibitory effect”. In experiment [3], the “Zone of inhibition, MRSA-575” value is recorded as 0 mm and the “inhibitory effect (in words) on multi-drug resistant Staphylococcus aureus 575” value was “no inhibitory effect”.

In the case of `C=C[C@]1(C)C[C@@H](OC(=O)COC(=O)C2CN(C3CC3)c3cc(Cl)c(F)cc3C2=O)[C@]2(C)CC[C@@H](C)[C@@]3(CCC(=O)[C@@H]23)[C@@H](C)[C@@H]1O` (stereo partly drawn) [2-(((3aS,4R,5S,6S,8R,9R,9aR,12R)-5-hydroxy-4,6,9,12-tetramethyl-1-oxo-6-vinyldecahydro-3a, 9-propanocyclopenta[8]annulen-8-yl)oxy)-2-oxoethyl-7-chloro-1-cyclopropyl-6-fluoro-4-oxo-1,2,3,4-tetrahydroquinoline-3-carboxylate], in experiment [1], the “Zone of inhibition, MRSA-206” value worked out at 16 mm and the “inhibitory effect (in words) on multi-drug resistant Staphylococcus aureus 206” value was “strong inhibitory effects”. For the same compound, in experiment [2], the “Zone of inhibition, MRSA-596” value is recorded as 25 mm and the “inhibitory effect (in words) on multi-drug resistant Staphylococcus aureus 596” value is “strong inhibitory effects”. In experiment [3], the “Zone of inhibition, MRSA-575” value is 12 mm and the “inhibitory effect (in words) on multi-drug resistant Staphylococcus aureus 575” value was “strong inhibitory effects”.

Consider `CN[C@H](CC(C)C)C(=O)N[C@H]1C(=O)N[C@@H](CC(N)=O)C(=O)N[C@H]2C(=O)N[C@H]3C(=O)N[C@H](C(=O)N[C@H](C(=O)O)c4cc(O)cc(O)c4-c4cc3ccc4O)[C@H](O)c3ccc(c(Cl)c3)Oc3cc2cc(c3O[C@@H]2O[C@H](CO)[C@@H](O)[C@H](O)[C@H]2O[C@H]2C[C@](C)(N)[C@H](O)[C@H](C)O2)Oc2ccc(cc2Cl)[C@H]1O` [Vancomycin], for which, in experiment [1], the “Zone of inhibition, MRSA-206” value is recorded as 15 mm. Moreover, the “Zone of inhibition, MRSA-596” value in experiment [2] is 23 mm. For the same compound, the “Zone of inhibition, MRSA-575” value in experiment [3] came out at 17 mm.

`C=C[C@]1(C)C[C@@H](OC(=O)CO)[C@]2(C)[C@H](C)CC[C@]3(CCC(=O)[C@H]32)[C@@H](C)[C@@H]1O` [Pleuromulin]: in experiment [1], the “Zone of inhibition, MRSA-206” value was determined as 0 mm and the “inhibitory effect (in words) on multi-drug resistant Staphylococcus aureus 206” value is “no inhibitory effect”. Further, in experiment [2], the “Zone of inhibition, MRSA-596” value is listed as 0 mm and the “inhibitory effect (in words) on multi-drug resistant Staphylococcus aureus 596” value is recorded as “no inhibitory effect”. Further, in experiment [3], the “Zone of inhibition, MRSA-575” value was determined as 0 mm and the “inhibitory effect (in words) on multi-drug resistant Staphylococcus aureus 575” value was “no inhibitory effect”.
